Data reported in patent US7098204B2 (C.N.R.S., priority 1999, dated 2006).
≈ marks a conversion by molar mass, not a printed value.

Assays:
cdk2/cyclin E = cdk2/cyclin E (Homo sapiens, UniProt P24941); assay: cdk2/cyclin E kinase assay; assay type: biochemical; conditions: 15 μM ATP
Procedure: (§1) Kinases activities were assayed in Buffer A or C (unless otherwise stated), at 30° C., at a final ATP concentration of 15 μM. Blank values were subtracted and activities calculated as pmoles of phosphate incorporated for a 10 min. incubation (usually expressed in % of the maximal activity, i.e. without inhibitors). Controls were performed with appropriate dilutions of Me2SO. In some cases phosphorylation of the substrate was assessed by autoradiography after SDS-PAGE. IC50 values were estimated from the dose-response curves. • CDK1/cyclin B was extracted in homogenisation buffer from M phase starfish (Marthasterias glacialis) oocytes and purified by affinity chromatography on p9^CKShs1-Sepharose beads, from which it was eluted by free p9^CKShs1 as described. The kinase activity was assayed in buffer C, with 1 mg histone H1/ml, in the presence of 15 μM [γ-^32P] ATP (3,000 Ci/mmol; 1 mCi/ml) in a final volume of 30 μl. After 10 min. incubation at 30° C., 25 μl aliquots of supernatant were spotted onto 2.5×3 cm pieces of Whatman P81 phosphocellulose paper, and, 20 sec. later, the filters were washed five times (for at least 5 min. each time) in a solution of 10 ml phosphoric acid/liter of water. The wet filters were counted in the presence of 1 ml ACS (Amersham) scintillation fluid. • GSK-3β was either purified from rabbit muscle or expressed in and purified from insect Sf9 cells. […]

protein kinase C δ = protein kinase C δ (Homo sapiens, UniProt Q05655); assay: protein kinase C δ assay; assay type: biochemical; conditions: 15 μM ATP
Chain of protein kinase C δ (Q05655 whole entry): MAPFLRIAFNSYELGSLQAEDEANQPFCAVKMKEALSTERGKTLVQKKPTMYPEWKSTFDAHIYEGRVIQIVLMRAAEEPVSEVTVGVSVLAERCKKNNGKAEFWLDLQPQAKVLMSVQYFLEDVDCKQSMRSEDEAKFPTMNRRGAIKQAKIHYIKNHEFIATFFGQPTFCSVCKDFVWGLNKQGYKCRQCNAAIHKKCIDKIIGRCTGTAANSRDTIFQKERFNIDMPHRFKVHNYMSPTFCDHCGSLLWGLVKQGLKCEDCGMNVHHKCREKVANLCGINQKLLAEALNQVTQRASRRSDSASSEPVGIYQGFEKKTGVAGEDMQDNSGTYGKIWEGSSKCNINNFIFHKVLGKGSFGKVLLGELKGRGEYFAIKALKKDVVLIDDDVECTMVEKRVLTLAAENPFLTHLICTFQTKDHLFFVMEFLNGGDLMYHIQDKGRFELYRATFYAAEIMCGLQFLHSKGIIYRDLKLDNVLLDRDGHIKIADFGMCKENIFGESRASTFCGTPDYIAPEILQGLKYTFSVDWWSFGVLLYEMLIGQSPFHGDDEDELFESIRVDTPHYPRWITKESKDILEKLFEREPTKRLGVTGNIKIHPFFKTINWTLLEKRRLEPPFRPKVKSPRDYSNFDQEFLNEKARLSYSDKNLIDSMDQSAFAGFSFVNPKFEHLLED
Procedure: as §1

ASK-γ (plant GSK-3) = ASK-γ (plant GSK-3) (Arabidopsis thaliana, UniProt P43289); assay: ASK-γ kinase assay; assay type: biochemical
Chain of ASK-γ (plant GSK-3) (P43289 whole entry): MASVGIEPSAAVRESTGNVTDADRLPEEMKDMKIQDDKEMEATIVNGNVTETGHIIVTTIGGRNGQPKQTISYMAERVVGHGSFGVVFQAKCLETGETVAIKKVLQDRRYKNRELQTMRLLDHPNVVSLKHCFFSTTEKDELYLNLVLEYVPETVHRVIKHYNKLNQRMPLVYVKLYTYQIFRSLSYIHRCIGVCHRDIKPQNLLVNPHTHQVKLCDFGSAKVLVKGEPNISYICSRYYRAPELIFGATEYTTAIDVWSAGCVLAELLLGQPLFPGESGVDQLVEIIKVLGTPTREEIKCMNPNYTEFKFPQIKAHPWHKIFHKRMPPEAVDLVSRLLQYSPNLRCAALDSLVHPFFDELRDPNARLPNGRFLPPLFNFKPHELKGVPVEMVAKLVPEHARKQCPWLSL
Procedure: as §1

[1] = molecular target: T1, Insulin receptor tyrosine Kinase (Homo sapiens, UniProt P06213); assay: insulin receptor tyrosine kinase assay; assay type: biochemical; conditions: 15 μM ATP
T1 construct: insulin receptor tyrosine kinase domain (CIRK-41)
T1 sequence (P06213 1023-1298 limits assumed): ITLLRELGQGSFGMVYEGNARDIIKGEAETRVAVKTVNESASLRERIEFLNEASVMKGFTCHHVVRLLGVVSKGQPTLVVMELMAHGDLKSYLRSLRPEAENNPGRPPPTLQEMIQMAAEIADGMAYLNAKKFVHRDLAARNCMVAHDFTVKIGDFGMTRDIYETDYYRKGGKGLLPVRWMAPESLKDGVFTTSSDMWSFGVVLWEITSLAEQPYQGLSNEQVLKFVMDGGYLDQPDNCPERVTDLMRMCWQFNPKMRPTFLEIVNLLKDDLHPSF
Procedure: as §1

[2] = system: GSK-3β like activity in Sf9 cells; assay: Tau (htau23) phosphorylation in Sf9 cells, Western blotting; assay type: cell-based; conditions: 50 μM, 5 hrs, Sf9 cells expressing htau23
Procedure: Cells and viruses. Sf9 cells (InVitrogen, San Diego, Calif.) were grown at 27° C. in monolayer culture Grace's medium (Gibco BRL, Gaithersburg, Md.) supplemented with 10% fetal bovine serum and 50 μg gentamycin/ml and 2.5 μg amphotericin/ml. BaculoGold was obtained from PharMingen (San Diego, Calif.), pVL1392 from In Vitrogen.
Tau transfection. The gene for htau23, the shortest human tau isoform [27] was excised from the bacterial expression vector pNG2 [28] with XbaI and BamHI, and inserted into the baculovirus transfer vector pVL1392 cut with the same restriction endonucleases. The BaculoGold system was used to construct the tau baculovirus containing vector. The BaculoGold DNA is a modified type of baculovirus containing a lethal deletion. Cotransfection of the BaculoGold DNA with a complementing baculovirus transfer vector rescued the lethal deletion of this virus DNA and reconstituted viable virus particles carrying the htau23 coding sequence. Plasmid DNA used for transfections was purified using QIAGEN cartridges (Hilden, Germany). Sf9 cells grown in monolayers (2×10^6 cells in a 60 mm cell culture dish) were cotransfected with baculovirus DNA (0.5 μg BaculoGold DNA) and with vector derivatives of pVL1392 (2 μg) using a calcium phosphate coprecipitation method. […]

brain, SF-295 = assay: Human cancer cell line SF-295 proliferation; assay type: cell-based
lung, H460 = assay: Human cancer cell line H460 proliferation; assay type: cell-based; conditions: NCI-H460
HT29-18-C1 cells = assay: Flow cytometric cell cycle analysis, HT29-18-C1; assay type: cell-based, human
Procedure: Cell culture and treatments. HT29-18-C1, a subclone of the human colon adenocarcinoma cell line HT29, was cultured in Dulbecco's modified Eagle's medium (Gibco-BRL) supplemented with 10% FCS, 2 mM L-glutamine (Eurobio) and […] gentamycin (Gibco-BRL) at 37° C., 10% CO2. Cells were synchronized by serum deprivation for 48 h. They were then released from growth arrest by the addition of 5% fetal calf serum (FCS). HD, prepared in DMSO, was added immediately to the medium, for 24 h and at final concentrations ranging from 0 to 80 μM. In some experiments HD was added 22 h after serum addition for an additional 24 h. In other experiments HD was added to unsynchronised cells. Cells were then washed and cultured in 5% FCS medium and counted or analysed by FACS at different times.
Cell counts and flow cytometric cell cycle analysis. Cell were counted with a hemocytometer. Cell cycle distribution was analysed by flow cytometry. […] The stained cells were analysed on a FACScan cytofluorimeter using the cellFit Software program (Becton Dickinson Immunocytometry Systems).
The results concerning the cell cycle distribution of HD-treated cells are given on FIG. 10A. […] Cells were then fixed and their cell cycle phase status was determined by FACscan analysis as described in the Experimental Procedures section. […] Cell cycle distribution was analysed every 24 h for a 72 h period. […]

CDK5/p35 = CDK5/p35 (Rattus norvegicus, UniProt Q03114); assay: In vivo Pak1 phosphorylation in cultured E18 cortical neurones; assay type: cell-based; set-up: endogenous in cells; host or cells: primary cortical neurones from E18 rat embryos; conditions: 1 hour exposure
Chain of CDK5/p35 (Q03114 whole entry): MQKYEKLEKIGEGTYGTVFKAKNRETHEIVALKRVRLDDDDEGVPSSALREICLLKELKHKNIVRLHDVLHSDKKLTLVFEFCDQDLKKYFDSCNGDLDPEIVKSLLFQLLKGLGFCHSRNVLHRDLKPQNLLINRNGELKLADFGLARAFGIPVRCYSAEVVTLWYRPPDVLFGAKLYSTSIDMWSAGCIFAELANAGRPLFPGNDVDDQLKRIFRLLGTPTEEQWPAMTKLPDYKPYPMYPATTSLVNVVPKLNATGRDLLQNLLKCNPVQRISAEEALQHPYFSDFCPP
Chain of CDK5/p35 (P61810 2-307 partner limits assumed): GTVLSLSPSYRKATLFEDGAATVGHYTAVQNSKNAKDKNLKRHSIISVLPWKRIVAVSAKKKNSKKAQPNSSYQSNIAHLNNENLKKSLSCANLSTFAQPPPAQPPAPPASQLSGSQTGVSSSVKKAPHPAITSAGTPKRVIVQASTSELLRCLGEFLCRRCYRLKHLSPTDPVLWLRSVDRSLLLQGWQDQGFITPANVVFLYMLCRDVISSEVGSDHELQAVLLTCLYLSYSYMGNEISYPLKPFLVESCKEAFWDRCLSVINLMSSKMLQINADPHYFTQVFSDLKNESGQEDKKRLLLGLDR
Procedure: HD was added onto cultured neurones obtained from E18 rat embryo cortices when the cultures were 4 days old. As a control DMSO was used to the maximal volume of drug used (7.5 μl). The drug was left on the cells for 1 hour. The cells were then lysed on ice in STM buffer and the membrane fraction isolated with STM containing 0.5% NP-40 [17].
Pak1 immunoprecipitations were carried out using a specific polyclonal antibody, followed by kinase assays using histone H4 as a a substrate. The amount of H4 phosphorylation, reflecting the level of Pak1 activity, was determined by measuring the intensity of the bands on autoradiography film and quantitating with NIH imaging program.
As loading controls Pak1 and p35 western blots were made. The latter protein increases in amount with the level of CDK5/p35 kinase inhibition.

**Q.** How did the IC50 (cdk2/cyclin E) turn out when `NC1=NC(=O)C(=C2CCNC(=O)c3[nH]c(Br)cc32)N1` [hymenialdisine, 4-(2-amino-4-oxo-2-imidazolin-5-ylidene)-2-bromo-4,5,6,7-tetrahydropyrrolo (2,3-c) azepine-8-one] was run?
**A.** 40 nM

**Q.** And the IC50 (protein kinase C δ)?
**A.** 1100 nM

**Q.** What about the IC50 (ASK-γ (plant GSK-3)) of the same compound?
**A.** 80 nM

**Q.** And the IC50 [1]?
**A.** 75000 nM

**Q.** And the “AT100 signal (tau phosphorylated at T212 and S214)” value [2]?
**A.** disappearance of AT100 signal

**Q.** What about the IC50 (brain, SF-295) of the same compound?
**A.** 38.9 µg/mL (≈ 120 µM)

**Q.** And the IC50 (lung, H460)?
**A.** 42 µg/mL (≈ 130 µM)

**Q.** What about the cell cycle distribution (HT29-18-C1 cells; 10 μM HD added 22 hr after serum, analysed 14 h later) of the same compound?
**A.** accumulation of cells in G2/M

**Q.** And the cell cycle distribution (HT29-18-C1 cells; HD added with serum at time 0, 24 h)?
**A.** accumulation of cells in S phase

**Q.** What about the “Pak1 activity (H4 phosphorylation) in neurons” value (CDK5/p35) of the same compound?
**A.** increase in Pak1 activity
